One data set concerns Bacillus subtilis. The data set can be described thus: Antibacterial activity against Bacillus subtilis ATCC6051 assessed as inhibition of bacterial growth at 100 uM incubated for 3 hrs by radial diffusion assay. Type of data set: functional, organism-based.
In data set [1] the test system is Cell membrane. The data set can be described thus: Induction of membrane permeabilization in Escherichia coli assessed as increase in fluorescence intensity at 2 uM by PI staining based fluorescence spectrophotometric analysis. In kind it is subcellular.
In the next data set the test system is Escherichia coli. The data set can be described thus: Antibacterial activity against Escherichia coli Top10 assessed as inhibition of bacterial growth at 100 uM incubated for 3 hrs by radial diffusion assay. Type of data set: functional, organism-based.
The test system of data set [2] is Cell membrane. The data set can be described thus: Induction of membrane translocation in Escherichia coli spheroplasts assessed as increase in fluorescence intensity using FITC-labeled compound by confocal microscopy. In kind it is subcellular.
Another data set concerns HEK293. The data set can be described thus: Cytotoxicity against HEK293 cells assessed as effect on cell metabolic activity at 18.2 uM incubated for overnight by MTS assay. The note with it: human, hek293, 18.2 µM. Type of data set: toxicity, cell-based. (In general: Formazan colour is commonly taken as a measure of viable cells.)

The structures appear in SMILES notation. Active and inactive are the calls of the source. The rule behind the calls is not given here.

As for `CC[C@H](C)[C@H](NC(=O)[C@H](CCCNC(=N)N)NC(=O)[C@@H](NC(=O)[C@H](CCCCN)NC(=O)[C@H](CCCCN)NC(=O)[C@H](CC(N)=O)NC(=O)[C@H](CC(=O)O)NC(=O)[C@H](CCCNC(=N)N)NC(=O)[C@H](C)N)[C@@H](C)O)C(=O)N[C@@H](Cc1c[nH]c2ccccc12)C(=O)N1CCC[C@H]1C(=O)N[C@@H](CCCNC(=N)N)C(=O)N[C@@H](Cc1cnc[nH]1)C(=O)N[C@@H](CC(C)C)C(=O)N[C@@H](CCC(N)=O)C(=O)N[C@@H](CC(C)C)C(=O)N[C@@H](C)C(=O)N[C@H](C(=O)N[C@@H](CCCNC(=N)N)C(=O)N[C@@H](CC(N)=O)C(=O)N1CCC[C@H]1C(=O)N[C@H](C(=O)N[C@@H](CCCNC(=N)N)C(=O)N[C@@H](CO)C(=O)N[C@@H](CO)C(=O)N[C@@H](CCCNC(=N)N)C(=O)N[C@@H](C)C(=O)NCC(=O)N[C@@H](CC(C)C)C(=O)N[C@@H](CCC(N)=O)C(=O)N[C@@H](Cc1c[nH]c2ccccc12)C(=O)N1CCC[C@H]1C(=O)N[C@H](C(=O)NCC(=O)N[C@@H](CCCNC(=N)N)C(=O)N[C@H](C(=O)N[C@@H](Cc1cnc[nH]1)C(=O)N[C@@H](CCCNC(=N)N)C(=O)N[C@@H](CC(C)C)C(=O)N[C@@H](CC(C)C)C(=O)N[C@@H](CCCNC(=N)N)C(=O)N[C@@H](CCCCN)C(=O)O)C(C)C)C(C)C)[C@@H](C)O)C(C)C`, the outcome with Bacillus subtilis, with Cell membrane [1], in the data set with Escherichia coli and with Cell membrane [2] was Active. The Activity entry in the data set with HEK293 was “Non-Toxic”.

Regarding `CC[C@H](C)[C@H](NC(=O)[C@H](CCCNC(=N)N)NC(=O)[C@@H](NC(=O)[C@H](CCCCN)NC(=O)[C@H](CCCCN)NC(=O)[C@H](CC(N)=O)NC(=O)[C@H](CC(=O)O)NC(=O)[C@H](CCCNC(=N)N)NC(=O)[C@H](C)N)[C@@H](C)O)C(=O)N[C@@H](Cc1c[nH]c2ccccc12)C(=O)N1CCC[C@H]1C(=O)N[C@@H](CCCNC(=N)N)C(=O)N[C@@H](Cc1cnc[nH]1)C(=O)N[C@@H](CC(C)C)C(=O)N[C@@H](CCC(N)=O)C(=O)N[C@@H](CC(C)C)C(=O)N[C@@H](C)C(=O)N[C@H](C(=O)N[C@@H](CCCNC(=N)N)C(=O)N[C@@H](CC(N)=O)C(=O)N[C@@H](C)C(=O)N[C@H](C(=O)N[C@@H](CCCNC(=N)N)C(=O)N[C@@H](CO)C(=O)N[C@@H](CO)C(=O)N[C@@H](CCCNC(=N)N)C(=O)N[C@@H](C)C(=O)NCC(=O)N[C@@H](CC(C)C)C(=O)N[C@@H](CCC(N)=O)C(=O)N[C@@H](Cc1c[nH]c2ccccc12)C(=O)N1CCC[C@H]1C(=O)N[C@H](C(=O)NCC(=O)N[C@@H](CCCNC(=N)N)C(=O)N[C@H](C(=O)N[C@@H](Cc1cnc[nH]1)C(=O)N[C@@H](CCCNC(=N)N)C(=O)N[C@@H](CC(C)C)C(=O)N[C@@H](CC(C)C)C(=O)N[C@@H](CCCNC(=N)N)C(=O)N[C@@H](CCCCN)C(=O)O)C(C)C)C(C)C)[C@@H](C)O)C(C)C`, the result with Bacillus subtilis, in the data set with Cell membrane [1], in the data set on Escherichia coli and in the data set on Cell membrane [2] was Active. The Activity result with HEK293 is “Non-Toxic”.

Take `CC[C@H](C)[C@H](NC(=O)[C@H](CCCNC(=N)N)NC(=O)[C@@H](NC(=O)[C@H](CCCCN)NC(=O)[C@H](CCCCN)NC(=O)[C@H](CC(N)=O)NC(=O)[C@H](CC(=O)O)NC(=O)[C@H](CCCNC(=N)N)NC(=O)[C@H](C)NC(=O)[C@H](C)NC(=O)[C@H](CCCCN)NC(=O)[C@H](CCCNC(=N)N)NC(=O)[C@H](CC(C)C)NC(=O)[C@H](CC(C)C)NC(=O)[C@H](CCCNC(=N)N)NC(=O)[C@H](Cc1cnc[nH]1)NC(=O)[C@@H](NC(=O)[C@H](CCCNC(=N)N)NC(=O)CNC(=O)[C@@H](NC(=O)[C@@H]1CCCN1C(=O)[C@H](Cc1c[nH]c2ccccc12)NC(=O)[C@H](CCC(N)=O)NC(=O)[C@H](CC(C)C)NC(=O)CNC(=O)[C@H](C)NC(=O)[C@H](CCCNC(=N)N)NC(=O)[C@H](CO)NC(=O)[C@H](CO)NC(=O)[C@H](CCCNC(=N)N)NC(=O)[C@@H](N)[C@@H](C)O)C(C)C)C(C)C)[C@@H](C)O)C(=O)N[C@@H](Cc1c[nH]c2ccccc12)C(=O)N1CCC[C@H]1C(=O)N[C@@H](CCCNC(=N)N)C(=O)N[C@@H](Cc1cnc[nH]1)C(=O)N[C@@H](CC(C)C)C(=O)N[C@@H](CCC(N)=O)C(=O)N[C@@H](CC(C)C)C(=O)N[C@@H](C)C(=O)N[C@H](C(=O)N[C@@H](CCCNC(=N)N)C(=O)N[C@@H](CC(N)=O)C(=O)O)C(C)C`: the outcome with Bacillus subtilis, in the data set on Cell membrane [1], in the data set with Escherichia coli and with Cell membrane [2] was Active. The Activity result in the data set on HEK293 is “Non-Toxic”.

In the case of `CC[C@H](C)[C@H](NC(=O)[C@H](CCCNC(=N)N)NC(=O)[C@@H](NC(=O)[C@H](CCCCN)NC(=O)[C@H](CCCCN)NC(=O)[C@H](CC(N)=O)NC(=O)[C@H](CC(=O)O)NC(=O)[C@H](CCCNC(=N)N)NC(=O)[C@H](C)NC(=O)[C@H](CCCCN)NC(=O)[C@H](CCCNC(=N)N)NC(=O)[C@H](CC(C)C)NC(=O)[C@H](CC(C)C)NC(=O)[C@H](CCCNC(=N)N)NC(=O)[C@H](Cc1cnc[nH]1)NC(=O)[C@@H](NC(=O)[C@H](CCCNC(=N)N)NC(=O)CNC(=O)[C@@H](NC(=O)[C@@H]1CCCN1C(=O)[C@H](Cc1c[nH]c2ccccc12)NC(=O)[C@H](CCC(N)=O)NC(=O)[C@H](CC(C)C)NC(=O)CNC(=O)[C@H](C)NC(=O)[C@H](CCCNC(=N)N)NC(=O)[C@H](CO)NC(=O)[C@H](CO)NC(=O)[C@H](CCCNC(=N)N)NC(=O)[C@@H](N)[C@@H](C)O)C(C)C)C(C)C)[C@@H](C)O)C(=O)N[C@@H](Cc1c[nH]c2ccccc12)C(=O)N1CCC[C@H]1C(=O)N[C@@H](CCCNC(=N)N)C(=O)N[C@@H](Cc1cnc[nH]1)C(=O)N[C@@H](CC(C)C)C(=O)N[C@@H](CCC(N)=O)C(=O)N[C@@H](CC(C)C)C(=O)N[C@@H](C)C(=O)N[C@H](C(=O)N[C@@H](CCCNC(=N)N)C(=O)N[C@@H](CC(N)=O)C(=O)O)C(C)C`, the outcome in the data set on Bacillus subtilis, with Cell membrane [1], in the data set with Escherichia coli and in the data set on Cell membrane [2] was Active. The Activity result with HEK293 is “Non-Toxic”.

With `CC[C@H](C)[C@H](NC(=O)[C@H](CCCNC(=N)N)NC(=O)[C@@H](NC(=O)[C@H](CCCCN)NC(=O)[C@H](CCCCN)NC(=O)[C@H](CC(N)=O)NC(=O)[C@H](CC(=O)O)NC(=O)[C@H](CCCNC(=N)N)NC(=O)[C@H](C)NC(=O)[C@@H]1CCCN1C(=O)[C@H](CCCCN)NC(=O)[C@H](CCCNC(=N)N)NC(=O)[C@H](CC(C)C)NC(=O)[C@H](CC(C)C)NC(=O)[C@H](CCCNC(=N)N)NC(=O)[C@H](Cc1cnc[nH]1)NC(=O)[C@@H](NC(=O)[C@H](CCCNC(=N)N)NC(=O)CNC(=O)[C@@H](NC(=O)[C@@H]1CCCN1C(=O)[C@H](Cc1c[nH]c2ccccc12)NC(=O)[C@H](CCC(N)=O)NC(=O)[C@H](CC(C)C)NC(=O)CNC(=O)[C@H](C)NC(=O)[C@H](CCCNC(=N)N)NC(=O)[C@H](CO)NC(=O)[C@H](CO)NC(=O)[C@H](CCCNC(=N)N)NC(=O)[C@@H](N)[C@@H](C)O)C(C)C)C(C)C)[C@@H](C)O)C(=O)N[C@@H](Cc1c[nH]c2ccccc12)C(=O)N1CCC[C@H]1C(=O)N[C@@H](CCCNC(=N)N)C(=O)N[C@@H](Cc1cnc[nH]1)C(=O)N[C@@H](CC(C)C)C(=O)N[C@@H](CCC(N)=O)C(=O)N[C@@H](CC(C)C)C(=O)N[C@@H](C)C(=O)N[C@H](C(=O)N[C@@H](CCCNC(=N)N)C(=O)N[C@@H](CC(N)=O)C(=O)O)C(C)C`, the result in the data set with Bacillus subtilis, in the data set with Cell membrane [1] and in the data set with Escherichia coli was Active. Further, the result in the data set on Cell membrane [2] was inactive. Moreover, the Activity entry in the data set with HEK293 is recorded as “Non-Toxic”.

The record behind these values is ChEMBL document CHEMBL6127153, “Hybrids of Membrane-Translocating Antimicrobial Peptides Show Enhanced Activity through Membrane Permeabilization” (ACS Med Chem Lett, 2024).
